From article PMC7734625, “Stabilization Strategies for Linear Minigastrin Analogues: Further Improvements via the Inclusion of Proline into the Peptide Sequence” (Journal of Medicinal Chemistry, 2020)
Non-standard residues stand in square brackets, D forms with d. Residues, ends and D or L forms follow the SMILES beside them. *: point of attachment. DOTA = O=C(O)CN1CCN(CC(=O)O)CCN(CC(=O)*)CCN(CC(=O)O)CC1; 1Nal = N[C@@H](Cc1cccc2ccccc12)C(=O)O; NMeNle = CCCC[C@H](NC)C(=O)O

Key:
[1] = stability in rat kidney homogenate; assay type: in vitro ADME; conditions: 120 min incubation, 37 °C
Protocol: In vitro stability studies characterizing the complex stability as well as the metabolic stability of the radiolabeled peptide analogues were carried out in PBS, fresh human serum, and rat liver and rat kidney homogenates. Organ homogenates were prepared from freshly dissected organs homogenized (IKA-Werke, Staufen, Germany) for 1 min at room temperature (RT) in a 20 mM 4-(2-hydroxyethyl)-1-piperazineethanesulfonic acid (HEPES) buffer at pH 7.3 (30% w/v). A fraction of 0.1 mL of radiolabeled peptide diluted in PBS/HEPES was added to 0.9 mL of medium reaching a final concentration of ∼500 pmol/mL and incubated at 37 °C for up to 120 min in rat organ homogenates (n = 2) and up to 24 h in human serum or PBS (n = 1). At each time point, 100 μL of sample was taken treated with 150 μL of ACN to precipitate proteins centrifuged (2000g, 2 min), diluted with water (1:1), and a fraction of 100 μL was injected to the analytical HPLC system. For serum and tissue homogenates, only the soluble phase extracted after centrifugation was analyzed, whereas the radioactivity lost in the pellet was not considered.

[2] = system: A431-CCK2R/A431-mock xenografts; test: biodistribution in A431-CCK2R/A431-mock xenografted BALB/c nude mice; assay type: in vivo
Protocol: Biodistribution studies evaluating the tumor uptake of the radiolabeled peptides were performed in 7- to 9-week-old female athymic BALB/c nude mice (Charles River, Sulzfeld, Germany). For the induction of tumor xenografts, 150 μL of DMEM containing 2 × 10^6 A431-CCK2R and A431-mock cells were injected subcutaneously in the right and left flank of each mouse, respectively. And 10–14 days after injection, tumors reached a medium weight of ∼0.25 g. The mice were divided into groups of four and injected intravenously via a lateral tail vein with 0.2 MBq of ^111In-labeled compound (0.02 nmol) and 0.7 and 1.5 MBq of the ^177Lu-labeled compound (0.02 and 0.15 nmol). At 4 and 12 h p.i., the mice were sacrificed and the tumors and other tissues (blood, lung, heart, muscle, spleen, intestine, liver, kidneys, stomach, and pancreas) were removed, weighed, and their radioactivity measured in the γ counter together with the rest of the body. Initial biodistribution studies were performed with the three ^177Lu-labeled CCK2R-targeting ligands at an injected peptide amount of 20 pmol for the time point of 4 h p.i. From these studies, two peptide analogues were selected to further characterize the biodistribution profile also at a later time point of 12 h p.i. and at a higher injected peptide amount of 150 pmol. Additional animal studies were performed for the ^111In-labeled conjugates. Percentage of injected activity per gram tissue (%IA/g), tumor-to-organ activity ratios, as well as whole body activity were calculated for each sample and statistical analysis using independent two-population t-test (significance level p < 0.05) was performed using Origin software. For the comparison of more than two groups, data were analyzed using one-way analysis of variance (ANOVA) Holm–Bonferroni-adjusted post hoc analysis (significance level p < 0.05) using Microsoft Excel 2010 software (Microsoft Excel 2010, Microsoft Corporation, WA).

[3] = in vivo stability studies in BALB/c mice; conditions: 60 min p.i., i.v., n = 1
Protocol: Metabolic studies evaluating the stability of the radioligands were carried out in 7- to 8-week-old female BALB/c mice. With the ^111In-labeled peptide derivatives, the studies were performed for the time point of 10 min p.i. (n = 2). With the ^177Lu-labeled peptide derivatives, additional studies were also carried out for the time point of 30 min and 60 min p.i. (n = 1 for each time point). To allow monitoring of the metabolites by analytical HPLC, the mice were injected with a higher amount of radioactivity (6–9 MBq indium-111, 30–45 MBq lutetium-177) corresponding to ∼1 nmol total peptide intravenously through a lateral tail vein. At different time points, the mice were euthanized by cervical dislocation and urine and a blood sample was collected. Liver and kidneys were excised and homogenized in 20 mM HEPES buffer pH 7.3. The amount of intact radiopeptide and the formation of metabolites was analyzed by analytical HPLC. Prior to injection into the HPLC system, all samples were treated as described for human serum and rat organ homogenate samples.

human CCK2R = molecular target: T1, human CCK2R (Homo sapiens, UniProt P32239); conditions: A431-CCK2R cells, previous assays; cited from earlier work
T1 construct: expressed in transfected cells; host or cells: A431 human epidermoid carcinoma cells, stably transfected (pCR3.1), provided by Dr. Luigi Aloj
T1 sequence (P32239 1-447): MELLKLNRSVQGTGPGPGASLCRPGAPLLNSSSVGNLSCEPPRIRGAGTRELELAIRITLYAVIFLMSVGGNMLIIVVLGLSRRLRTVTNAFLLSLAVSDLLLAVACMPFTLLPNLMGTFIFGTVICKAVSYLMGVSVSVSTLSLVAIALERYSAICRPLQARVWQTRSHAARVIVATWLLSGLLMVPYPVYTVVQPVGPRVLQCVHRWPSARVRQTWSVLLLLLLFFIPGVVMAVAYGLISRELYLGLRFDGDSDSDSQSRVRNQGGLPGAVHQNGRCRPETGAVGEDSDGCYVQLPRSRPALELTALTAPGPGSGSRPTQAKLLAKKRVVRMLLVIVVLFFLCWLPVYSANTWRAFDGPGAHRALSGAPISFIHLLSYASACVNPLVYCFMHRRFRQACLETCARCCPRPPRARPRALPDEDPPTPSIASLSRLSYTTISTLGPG

| Compound | intact radiopeptide in rat kidney homogenate [1] [%] | tumor uptake in A431-CCK2R xenografts ([2]; 20 pmol, 4 h p.i.) [% IA/g] | uptake in A431-mock xenografts ([2]; 150 pmol, 4 h p.i.) [% IA/g] | uptake in blood ([2]; 150 pmol, 4 h p.i.) [% IA/g] | uptake in heart ([2]; 150 pmol, 4 h p.i.) [% IA/g] | uptake in spleen ([2]; 150 pmol, 4 h p.i.) [% IA/g] | tumor retention ([2]; A431-CCK2R xenografts, 12 h p.i. relative to 4 h p.i., 20 pmol) [%] | reduction of tumor uptake in A431-CCK2R xenografts ([2]; injected peptide amount increased to 150 pmol vs 20 pmol, 4 h p.i.) | intact radiopeptide in blood [3] [%] | intact radiopeptide in kidneys [3] [%] | intact radiopeptide in liver [3] [%] | intact radiopeptide in urine [3] [%] | IC50 (human CCK2R) [nM] |
| --- | --- | --- | --- | --- | --- | --- | --- | --- | --- | --- | --- | --- | --- |
| CCCC[C@@H](C(=O)N[C@@H](CC(=O)O)C(=O)N[C@@H](Cc1cccc2ccccc12)C(N)=O)N(C)C(=O)[C@H](Cc1c[nH]c2ccccc12)NC(=O)CNC(=O)[C@H](Cc1ccc(O)cc1)NC(=O)[C@@H]1CCCN1C(=O)[C@@H](CCC(=O)O)NC(=O)CN1CCN(CC(=O)O)CCN(CC(=O)O)CCN(CC(=O)O)CC1 [[^177Lu]Lu-1] [metal not drawn] ({DOTA}-[dE]PYGW[NMeNle]D[1Nal]-NH2) | ~5 | 35 | 0.32 ± 0.14 | 0.07 ± 0.04 | 0.09 ± 0.03 | 0.18 ± 0.05 | > 60 | about 50% | 56.6 | 8.1 | 30.8 | 23.0 | – |
| DOTA-MG11: DOTA conjugate of the truncated MG analogue [DGlu^1,DesGlu^2–6]MG (MG11) (EAYGWMDF; Synthetic [DGlu1,desGlu2-6]minigastrin: residue 1 is D-Glu, N-terminal DOTA, C-terminal amide (Phe-NH2), Tyr not sulfated) | – | – | – | – | – | – | – | – | – | – | – | – | 0.9 ± 0.3 |
